Laboratory results published in ChEMBL document CHEMBL1153497, “Development of antitubercular compounds based on a 4-quinolylhydrazone scaffold. Further structure-activity relationship studies” (Bioorg Med Chem, 2009).
Values after ≈ are worked out from the molar mass of the structure shown. Values joined by “and” are separate entries in the source; they are usually repeats but may differ in a detail not shown here. Identical values can stand only once.

Assays:
[1] = tested on: Mycobacterium tuberculosis; assay: Antitubercular activity against Mycobacterium tuberculosis H37Rv by microplate alamar blue assay; assay type: functional
[2] = tested on: Mycobacterium tuberculosis; assay: Antitubercular activity against Mycobacterium tuberculosis H37Rv at 6.25 ug/mL by broth microdilution method; assay type: functional
Vero [3] = assay: Cytotoxicity against african green monkey Vero cells after 72 hrs by MTT assay; assay type: cell-based; details: Chlorocebus sabaeus
[4] = Selectivity index, IC50 for african green monkey Vero cells to MIC for Mycobacterium tuberculosis H37Rv; assay type: functional
[5] = tested on: Mycobacterium tuberculosis; assay: Antitubercular activity against Mycobacterium tuberculosis isolate UC0801 by microplate alamar blue assay; assay type: functional
[6] = tested on: Mycobacterium tuberculosis; assay: Antitubercular activity against Mycobacterium tuberculosis isolate UC0803 by microplate alamar blue assay; assay type: functional
[7] = tested on: Mycobacterium tuberculosis; assay: Antitubercular activity against Mycobacterium tuberculosis isolate UC0802 by microplate alamar blue assay; assay type: functional
[8] = tested on: Mycobacterium tuberculosis; assay: Antitubercular activity against Mycobacterium tuberculosis isolate UC0804 by microplate alamar blue assay; assay type: functional
Vero [9] = assay: Cytotoxicity against african green monkey Vero cells at > 2.5 ug/mL after 72 hrs by MTT assay; assay type: cell-based; details: Chlorocebus sabaeus
[10] = tested on: Mycobacterium tuberculosis; assay: Antitubercular activity against Mycobacterium tuberculosis H37Rv assessed as CFU treated on day 7 measured after 14 days; assay type: functional, organism-based

## COc1cccc2c(N/N=C/c3cccc4ccccc34)cc(C)nc12
[1]
  MIC: 9.3 µM
[2]
  inhibition at 6.25 µg/mL: 99%

## COc1cccc2c(N/N=C/c3ccc4ccccc4n3)cc(C)nc12
[1]
  MIC: 4.7 µM
Vero [3]
  IC50: 3.11 µg/mL (≈ 9.08 µM)
[2]
  inhibition at 6.25 µg/mL: 100%
[4]
  Selectivity Index: 1.99

## COc1ccc2nccc(N/N=C/C3CCCCC3)c2c1
[1]
  MIC: 11.1 µM
Vero [3]
  IC50: 5.03 µg/mL (≈ 17.8 µM)
[2]
  inhibition at 6.25 µg/mL: 99%
[4]
  Selectivity Index: 3.44

## COc1cccc2c(N/N=C/c3ccc(N(C)C)cc3)ccnc12
[1]
  MIC: 19.5 µM
[2]
  inhibition at 6.25 µg/mL: 100%

## COc1ccc2nccc(N/N=C/c3ccc(N(C)C)cc3)c2c1
[1]
  MIC: 19.5 µM
[2]
  inhibition at 6.25 µg/mL: 100%

## Cc1cc(N/N=C/c2ccccn2)c2cc3c(cc2n1)OCO3
[2]
  inhibition at 6.25 µg/mL: 74%

## COc1ccc2ccccc2c1/C=N/Nc1cc(C)nc2cc3c(cc12)OCO3
[2]
  inhibition at 6.25 µg/mL: 100%

## COc1ccc2c(N/N=C/c3ccc4ccccc4c3)ccnc2c1
[1]
  MIC: 0.6 µM
Vero [3]
  IC50: 0.454 µg/mL (≈ 1.39 µM)
[2]
  inhibition at 6.25 µg/mL: 100%
[4]
  Selectivity Index: 2.27

## COc1ccc2cc(/C=N/Nc3ccnc4cc(OC)ccc34)ccc2c1
[1]
  MIC: 0.6 µM
Vero [3]
  IC50: 0.211 µg/mL (≈ 0.59 µM)
[2]
  inhibition at 6.25 µg/mL: 100%
[4]
  Selectivity Index: 1.05

## Cc1cc(N/N=C/c2ccc(O)cc2)c2cc3c(cc2n1)OCO3
[2]
  inhibition at 6.25 µg/mL: 100%

## COc1ccc2c(/C=N/Nc3ccnc4cc(OC)ccc34)ccnc2c1
[1]
  MIC: 2.2 µM
[2]
  inhibition at 6.25 µg/mL: 100%

## NNC(=O)c1ccncc1 [ISONIAZID]
[1]
  MIC: 0.36 µM and 0.05 µg/mL
[5]
  MIC: 0.05 µg/mL (≈ 0.365 µM)
[6]
  MIC: 0.05 µg/mL (≈ 0.365 µM)
[7]
  MIC: 0.25 µg/mL (≈ 1.82 µM)
[8]
  MIC: 0.05 µg/mL (≈ 0.365 µM)

## COc1ccc(/C=N/Nc2ccnc3cc4c(cc23)OCO4)cc1
[1]
  MIC: 4.8 µM
[2]
  inhibition at 6.25 µg/mL: 100%

## COc1ccc2c(N/N=C/c3ccc(N(C)C)cc3)ccnc2c1
[1]
  MIC: 4.9 µM
Vero [3]
  IC50: 0.26 µg/mL (≈ 0.811 µM)
[2]
  inhibition at 6.25 µg/mL: 100%
[4]
  Selectivity Index: 0.17

## COc1ccc(/C=N/Nc2ccnc3ccc(OC)cc23)cc1
[1]
  MIC: 10.2 µM
[2]
  inhibition at 6.25 µg/mL: 100%

## Cc1cc(N/N=C/c2ncc[nH]2)c2cc3c(cc2n1)OCO3
[1]
  MIC: 5.3 µg/mL
Vero [3]
  IC50: > 100 µg/mL
[2]
  inhibition at 6.25 µg/mL: 100%
[4]
  Selectivity Index: >66

## CCOc1ccc2c(N/N=C/c3ccc4c(c3)OCO4)cc(C)nc2c1
[1]
  MIC: 9 µM
[2]
  inhibition at 6.25 µg/mL: 98%

## COc1ccc2cc(/C=N/Nc3cc(C)nc4cc5c(cc34)OCO5)ccc2c1
[2]
  inhibition at 6.25 µg/mL: 100%

## Cc1cc(N/N=C/c2ccccc2)c2cc3c(cc2n1)OCO3
Vero [9]
  Activity: Toxic
[1]
  MIC: 2.6 µM and 0.5 µg/mL
[5]
  MIC: 0.12 µg/mL (≈ 0.393 µM)
[6]
  MIC: 0.25 µg/mL (≈ 0.819 µM)
[7]
  MIC: 1 µg/mL (≈ 3.28 µM)
[2]
  inhibition at 6.25 µg/mL: 100%
[8]
  MIC: 0.12 µg/mL (≈ 0.393 µM)
[10]
  Activity: Dose-dependent effect

## CO[C@H]1/C=C/O[C@@]2(C)Oc3c(C)c(O)c4c(O)c(c(/C=N/N5CCN(C)CC5)c(O)c4c3C2=O)NC(=O)/C(C)=C\C=C\[C@H](C)[C@H](O)[C@@H](C)[C@@H](O)[C@@H](C)[C@H](OC(C)=O)[C@@H]1C [RIFAMPIN]
[1]
  MIC: 0.037 µM

## C(=N\Nc1ccnc2cc3c(cc12)OCO3)/C1CCCCC1
[2]
  inhibition at 6.25 µg/mL: 74%

## COc1ccc(/C=N/Nc2cc(C)nc3cc4c(cc23)OCO4)cc1
[1]
  MIC: 9.3 µM
[2]
  inhibition at 6.25 µg/mL: 100%

## COc1ccc2c(N/N=C/c3ccnc4ccccc34)cc(C)nc2c1
[1]
  MIC: 4.6 µM
[2]
  inhibition at 6.25 µg/mL: 100%

## COc1cccc2c(N/N=C/c3ccc4ccccc4n3)ccnc12
[1]
  MIC: 4.8 µM
Vero [3]
  IC50: 1.68 µg/mL (≈ 5.12 µM)
[2]
  inhibition at 6.25 µg/mL: 99%
[4]
  Selectivity Index: 1.08

## COc1ccc2c(N/N=C/c3ccc(O)cc3)ccnc2c1
[1]
  MIC: 5.3 µM
Vero [3]
  IC50: 3.66 µg/mL (≈ 12.5 µM)
[2]
  inhibition at 6.25 µg/mL: 100%
[4]
  Selectivity Index: 2.53

## COc1ccc2c(N/N=C/c3ccc[nH]3)ccnc2c1
[1]
  MIC: 11.8 µM
[2]
  inhibition at 6.25 µg/mL: 99%

## COc1ccc2c(N/N=C/c3ccccc3)ccnc2c1
[1]
  MIC: 16.4 µM
[2]
  inhibition at 6.25 µg/mL: 100%

## CCOc1ccc2c(N/N=C/c3ccncc3)ccnc2c1
[2]
  inhibition at 6.25 µg/mL: 26%

## COc1ccc2c(N/N=C/c3ccc4ccccc4n3)cc(C)nc2c1
[1]
  MIC: 4.6 µM
Vero [3]
  IC50: 0.12 µg/mL (≈ 0.35 µM)
[2]
  inhibition at 6.25 µg/mL: 100%
[4]
  Selectivity Index: 0.08

## CCOc1ccc2c(N/N=C/c3ccncc3)cc(C)nc2c1
[2]
  inhibition at 6.25 µg/mL: 78%

## CCOc1ccc2c(N/N=C/c3ccc(OC)cc3)cc(C)nc2c1
[2]
  inhibition at 6.25 µg/mL: 20%

## Cc1cc(N/N=C/C2CCCCC2)c2cc3c(cc2n1)OCO3
[2]
  inhibition at 6.25 µg/mL: 9%

## CCOc1ccc2c(N/N=C/c3ccc(OC)cc3)ccnc2c1
[1]
  MIC: 9.7 µM
[2]
  inhibition at 6.25 µg/mL: 100%

## CCOc1ccc2c(N/N=C/c3ccc4c(c3)OCO4)ccnc2c1
[2]
  inhibition at 6.25 µg/mL: 48%

## Cc1cc(N/N=C/c2ccnc3ccccc23)c2cc3c(cc2n1)OCO3
[2]
  inhibition at 6.25 µg/mL: 100%

## COc1ccc2c(N/N=C/c3ccc4ccccc4n3)ccnc2c1
[1]
  MIC: 9.5 µM
[2]
  inhibition at 6.25 µg/mL: 99%

## COc1ccc(/C=N/Nc2cc(C)nc3ccc(OC)cc23)cc1
[1]
  MIC: 4.8 µM
[2]
  inhibition at 6.25 µg/mL: 100%

## COc1cccc(/C=N/Nc2cc(C)nc3cc4c(cc23)OCO4)c1
[1]
  MIC: 9.3 µM
[2]
  inhibition at 6.25 µg/mL: 100%

## COc1ccc(/C=N/Nc2cc(C)nc3cc(OC)ccc23)cc1
[1]
  MIC: 19.5 µM
[2]
  inhibition at 6.25 µg/mL: 99%

## Cc1cc(N/N=C/c2cccc(O)c2)c2cc3c(cc2n1)OCO3
[2]
  inhibition at 6.25 µg/mL: 100%

## Cc1cc(N/N=C/c2ccc3c(c2)OCO3)c2cc3c(cc2n1)OCO3
[1]
  MIC: 4.5 µM
Vero [3]
  IC50: 0.22 µg/mL (≈ 0.63 µM)
[2]
  inhibition at 6.25 µg/mL: 100%
[4]
  Selectivity Index: 0.14

## COc1ccc(/C=N/Nc2ccnc3cc(OC)ccc23)cc1
[1]
  MIC: 9.8 µM
[2]
  inhibition at 6.25 µg/mL: 100%

## COc1ccc2nccc(N/N=C/c3ccc4c(c3)OCO4)c2c1
[1]
  MIC: 2.4 µM
[2]
  inhibition at 6.25 µg/mL: 100%

## Cc1cc(N/N=C/c2ccc3ccccc3c2)c2cc3c(cc2n1)OCO3
[2]
  inhibition at 6.25 µg/mL: 100%

## COc1ccc(/C=N/Nc2cc(C)nc3cc4c(cc23)OCO4)cc1OC
[2]
  inhibition at 6.25 µg/mL: 100%

## COc1ccc2c(N/N=C/c3cccc(O)c3)ccnc2c1
[1]
  MIC: 2.7 µM
Vero [3]
  IC50: 1.09 µg/mL (≈ 3.72 µM)
[2]
  inhibition at 6.25 µg/mL: 100%
[4]
  Selectivity Index: 1.59

## COc1ccc2c(N/N=C/c3ccnc4ccccc34)ccnc2c1
[1]
  MIC: 9.5 µM
[2]
  inhibition at 6.25 µg/mL: 100%

## COc1cccc2c(N/N=C/c3ccnc4ccccc34)cc(C)nc12
[1]
  MIC: 9.1 µM
[2]
  inhibition at 6.25 µg/mL: 98%

## COc1cccc2c(N/N=C/c3cccc4ccccc34)ccnc12
[2]
  inhibition at 6.25 µg/mL: 100%

## COc1ccc2nc(C)cc(N/N=C/c3ccc(N(C)C)cc3)c2c1
[1]
  MIC: 9.4 µM
[2]
  inhibition at 6.25 µg/mL: 100%

## COc1ccc2nc(C)cc(N/N=C/c3ccc4c(c3)OCO4)c2c1
[1]
  MIC: 4.8 µM
[2]
  inhibition at 6.25 µg/mL: 100%

## COc1cccc2c(N/N=C/c3ccc4c(c3)OCO4)ccnc12
[2]
  inhibition at 6.25 µg/mL: 31%

## COc1ccc2c(N/N=C/c3ccc4c(c3)OCO4)ccnc2c1
[1]
  MIC: 9.7 µM
[2]
  inhibition at 6.25 µg/mL: 100%

## Cc1cc(N/N=C/c2ccc(F)cc2)c2cc3c(cc2n1)OCO3
[1]
  MIC: 19.3 µM
[2]
  inhibition at 6.25 µg/mL: 100%

## COc1cccc2c(N/N=C/c3ccc4c(c3)OCO4)cc(C)nc12
[2]
  inhibition at 6.25 µg/mL: 95%

## Cc1cc(N/N=C/c2ccncc2)c2cc3c(cc2n1)OCO3
[2]
  inhibition at 6.25 µg/mL: 87%

## Cc1cc(N/N=C/c2ccc[nH]2)c2cc3c(cc2n1)OCO3
[1]
  MIC: 10.6 µM
[2]
  inhibition at 6.25 µg/mL: 100%

## COc1ccc(/C=N/Nc2cc(C)nc3cc4c(cc23)OCO4)c2ccccc12
[1]
  MIC: 4 µM
Vero [3]
  IC50: 0.24 µg/mL (≈ 0.623 µM)
[2]
  inhibition at 6.25 µg/mL: 100%
[4]
  Selectivity Index: 0.15

## CCN(CC)c1ccc(/C=N/Nc2cc(C)nc3cc4c(cc23)OCO4)cc1
[1]
  MIC: 8.3 µM
[2]
  inhibition at 6.25 µg/mL: 100%

## COc1cccc2c(N/N=C/c3ccccc3)ccnc12
[1]
  MIC: 11.3 µM
[2]
  inhibition at 6.25 µg/mL: 99%
